Molecules are shown by their SMILES. Counter-ions that a name gives are not always drawn. Where only a bound is given, the exact number is not on record here.

By IC50 is commonly meant the concentration that inhibits the measured activity by half.

Common to all, as to type: cell-based
The subject of one assay is HTT CJ mRNA. Nature of the assay: Gene panel canonical junction qPCR assay, HTT. The note with it: Homo sapiens, larger gene panel, read-out: HTT IC50 (decrease in CJ mRNA levels). In short, it runs like this:
(§1)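 A673 or K562 cells treated 24 h with 11-point 3-fold dilutions (top 10 µM, ≤0.25% DMSO) at 37 °C. Canonical exon-junction mRNA measured by probe-based RT-qPCR, normalized to GAPDH, GUSB or PPIA and DMSO (2^−ΔΔCt), converted to percent response over a fixed ΔCt window; IC50 from 4-parameter fit.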
On the technique in general: In qPCR the cycle at which signal appears reflects the starting amount.

The subject of a further assay is SMN2 CJ mRNA. Nature of the assay: Gene panel canonical junction qPCR assay, SMN2. Conditions: Homo sapiens, larger gene panel, read-out: SMN2 IC50 (decrease in CJ mRNA levels). In short, it runs like this: as §1
The test system of the next assay is Target C CJ mRNA. The assay is described as follows: Gene panel canonical junction qPCR assay, Target C. Conditions: Homo sapiens, larger gene panel, read-out: Target C IC50 (decrease in CJ mRNA levels). In short, it runs like this: as §1

`Cc1cc(-c2cc3ncn(C4CCNCC4)c(=O)c3s2)cc2cn(C)nc12` [Compound 236, 6-(2,7-dimethyl-2H-indazol-5-yl)-3-(piperidin-4-yl)thieno[3,2-d]pyrimidin-4(3H)-one]: the IC50 in the assay with HTT CJ mRNA is under 100 nM; in the assay with SMN2 CJ mRNA it was under 100 nM; in the assay on Target C CJ mRNA, 100 to 1000 nM.
Turning to `Cc1cc(-c2cc3ncn(C4CCN(C)CC4)c(=O)c3s2)cc2cn(C)nc12` [Compound 237, 6-(2,7-dimethyl-2H-indazol-5-yl)-3-(1-methylpiperidin-4-yl)thieno[3,2-d]pyrimidin-4(3H)-one], the IC50 in the assay on HTT CJ mRNA is 100 to 1000 nM; in the assay with SMN2 CJ mRNA, under 100 nM; in the assay on Target C CJ mRNA, 1000 to 10000 nM.
On the same counts, the results for `Cc1cn2nc(-c3cc4ncn(C5CCNCC5)c(=O)c4s3)cc(C)c2n1` [Compound 238, 6-(2,8-dimethylimidazo[1,2-b]pyridazin-6-yl)-3-(piperidin-4-yl)thieno[3,2-d]pyrimidin-4(3H)-one] are 100 to 1000 nM, under 100 nM and 1000 to 10000 nM.
On the same counts, the results for `Cc1cn2nc(-c3cc4ncn(C5CCN(C)CC5)c(=O)c4s3)cc(C)c2n1` [Compound 239, 6-(2,8-dimethylimidazo[1,2-b]pyridazin-6-yl)-3-(1-methylpiperidin-4-yl)thieno[3,2-d]pyrimidin-4(3H)-one] are 1000 to 10000 nM, under 100 nM and over 10000 nM.
In the case of `Cc1cn2cc(-c3nc4sc(C5CCNCC5)cc4c(=O)[nH]3)cc(F)c2n1` [Compound 250, 2-(8-fluoro-2-methylimidazo[1,2-a]pyridin-6-yl)-6-(piperidin-4-yl)thieno[2,3-d]pyrimidin-4(3H)-one], the IC50 in the assay on HTT CJ mRNA, in the assay on SMN2 CJ mRNA and in the assay with Target C CJ mRNA was 100 to 1000 nM each time.
With `Cc1nc(-c2nc3ncn(C4CCNCC4)c(=O)c3s2)cc2cn(C)nc12` [Compound 251, 2-(2,7-dimethyl-2H-pyrazolo[3,4-c]pyridin-5-yl)-6-(piperidin-4-yl)thiazolo[4,5-d]pyrimidin-7(6H)-one], the values for the half-inhibitory concentration (IC50) with HTT CJ mRNA, in the assay with SMN2 CJ mRNA and in the assay with Target C CJ mRNA were 1000 to 10000 nM, 100 to 1000 nM and over 10000 nM, respectively.
`Cn1cc2cc(-c3nc4ncn(C5CCNCC5)c(=O)c4s3)c(O)cc2n1` [Compound 253, 2-(6-hydroxy-2-methyl-2H-indazol-5-yl)-6-(piperidin-4-yl)thiazolo[4,5-d]pyrimidin-7(6H)-one, hydrochloride]: the results for the IC50 with HTT CJ mRNA, with SMN2 CJ mRNA and with Target C CJ mRNA were 1000 to 10000 nM, 100 to 1000 nM and 1000 to 10000 nM, respectively.
In the case of `Cc1cn2cc(-c3nc4sc(C5CCN(C)CC5)cc4c(=O)[nH]3)cc(F)c2n1` [Compound 256, 2-(8-fluoro-2-methylimidazo[1,2-a]pyridin-6-yl)-6-(1-methylpiperidin-4-yl)thieno[2,3-d]pyrimidin-4(3H)-one], the IC50 in the assay with HTT CJ mRNA was over 10000 nM; with SMN2 CJ mRNA it was 1000 to 10000 nM; in the assay with Target C CJ mRNA it was over 10000 nM.
With `Cn1cc2cc(-c3cc4ncn(C5CCNCC5)c(=O)c4s3)cc(F)c2n1` [Compound 257], the IC50 in the assay on HTT CJ mRNA, with SMN2 CJ mRNA and in the assay with Target C CJ mRNA was 1000 to 10000 nM each time.
Turning to `Cn1cc2cc(-c3cc4ncn(C5CCNCC5)c(=O)c4s3)c(F)cc2n1` [Compound 258], the half-inhibitory concentration (IC50) with HTT CJ mRNA was 100 to 1000 nM; with SMN2 CJ mRNA, under 100 nM; in the assay on Target C CJ mRNA, 1000 to 10000 nM.
For `Cn1cc2cc(-c3cc4ncn(C5CCNCC5)c(=O)c4s3)cc(C#N)c2n1` [Compound 259], the IC50 in the assay on HTT CJ mRNA was 1000 to 10000 nM; with SMN2 CJ mRNA, under 100 nM; in the assay on Target C CJ mRNA, 1000 to 10000 nM.
On to `COc1cc(-c2cc3ncn(C4CCNCC4)c(=O)c3s2)cnn1` [Compound 260], for which the IC50 in the assay on HTT CJ mRNA, in the assay on SMN2 CJ mRNA and with Target C CJ mRNA was 1000 to 10000 nM in each case.
As to `Cc1cn2cc(-c3cc4ncn(C5CCNCC5)c(=O)c4s3)cc(C)c2n1` [Compound 261], the figures for the IC50 in the assay with HTT CJ mRNA, in the assay on SMN2 CJ mRNA and with Target C CJ mRNA were 100 to 1000 nM, under 100 nM and 1000 to 10000 nM, respectively.
With `Cc1cn2nc(-c3cc4ncn(C5CCNCC5)c(=O)c4s3)cc2c(C)n1` [Compound 262], the IC50 in the assay with HTT CJ mRNA, in the assay with SMN2 CJ mRNA and in the assay on Target C CJ mRNA was 100 to 1000 nM throughout.
In the case of `COc1cc(-c2cc3ncn(C4CCNCC4)c(=O)c3s2)ccn1` [Compound 263], the IC50 in the assay on HTT CJ mRNA, with SMN2 CJ mRNA and with Target C CJ mRNA was 1000 to 10000 nM in each case.
On to `Cc1cn2cc(-c3cc4ncn(C5CCNCC5)c(=O)c4s3)ncc2n1` [Compound 264], for which the IC50 with HTT CJ mRNA was in the range of 1000 to 10000 nM; in the assay on SMN2 CJ mRNA it was 100 to 1000 nM; with Target C CJ mRNA, 1000 to 10000 nM.
On to `Cc1cn2cc(-c3cc4ncn(C5CCN(C)CC5)c(=O)c4s3)cc(F)c2n1` [Compound 265, 6-{8-fluoro-2-methylimidazo[1,2-a]pyridin-6-yl}-3-(1-methylpiperidin-4-yl)thieno[3,2-d]pyrimidin-4-one], for which the IC50 with HTT CJ mRNA is 100 to 1000 nM; in the assay with SMN2 CJ mRNA, under 100 nM; in the assay with Target C CJ mRNA, 100 to 1000 nM.
Consider `Cc1cn2nc(-c3nc4sc(N5CCNCC5)nc4c(=O)[nH]3)cc2c(C)n1` [Compound 267], for which the IC50 in the assay on HTT CJ mRNA, in the assay on SMN2 CJ mRNA and in the assay on Target C CJ mRNA was 100 to 1000 nM in each case.
As to `Cc1cn2nc(-c3nc4sc(N5CCN(C)CC5)nc4c(=O)[nH]3)cc2c(C)n1` [Compound 268], the IC50 in the assay with HTT CJ mRNA is over 10000 nM; in the assay on SMN2 CJ mRNA, 100 to 1000 nM; in the assay with Target C CJ mRNA, over 10000 nM.
As to `Cc1cn2cc(-c3cc4ncn(N5CCNCC5)c(=O)c4s3)cc(F)c2n1` [Compound 269, 6-{8-fluoro-2-methylimidazo[1,2-a]pyridin-6-yl}-3-(piperazin-1-yl)thieno[3,2-d]pyrimidin-4-one], the IC50 was 100 to 1000 nM in the assay with HTT CJ mRNA, under 100 nM in the assay with SMN2 CJ mRNA and 1000 to 10000 nM in the assay with Target C CJ mRNA.
On the same counts, the results for `Cc1cn2cc(-c3cc4ncn(C5CCNC5)c(=O)c4s3)cc(F)c2n1` (stereo not drawn) [Compound 270, 6-{8-fluoro-2-methylimidazo[1,2-a]pyridin-6-yl}-3-(pyrrolidin-3-yl)thieno[3,2-d]pyrimidin-4-one] are 100 to 1000 nM, 100 to 1000 nM and 100 to 1000 nM.
Take `Cc1nc(-c2cc3ncn(C4CCNCC4)c(=O)c3s2)cc2cn(C)nc12` [Compound 271]: the IC50 in the assay with HTT CJ mRNA was 1000 to 10000 nM; in the assay on SMN2 CJ mRNA, under 100 nM; in the assay on Target C CJ mRNA, 1000 to 10000 nM.
For `Cc1cn2cc(-c3cc4ncn(C5CCNCC5(F)F)c(=O)c4s3)cc(F)c2n1` (stereo not drawn) [Compound 274, 3-(3,3-difluoropiperidin-4-yl)-6-{8-fluoro-2-methylimidazo[1,2-a]pyridin-6-yl}thieno[3,2-d]pyrimidin-4-one], the IC50 in the assay with HTT CJ mRNA was over 10000 nM; in the assay on SMN2 CJ mRNA, 1000 to 10000 nM; in the assay with Target C CJ mRNA, over 10000 nM.
Regarding `Cc1cn2cc(-c3cc4ncn(C5CCCNCC5)c(=O)c4s3)cc(F)c2n1` (stereo not drawn) [Compound 275, 3-(azepan-4-yl)-6-{8-fluoro-2-methylimidazo[1,2-a]pyridin-6-yl}thieno[3,2-d]pyrimidin-4-one], the IC50 is 100 to 1000 nM in the assay on HTT CJ mRNA, under 100 nM with SMN2 CJ mRNA and 100 to 1000 nM in the assay on Target C CJ mRNA.
On to `Cc1cn2cc(-c3cc4ncn(C5=CCNCC5)c(=O)c4s3)cc(F)c2n1` [Compound 276, 6-{8-fluoro-2-methylimidazo[1,2-a]pyridin-6-yl}-3-(1,2,3,6-tetrahydropyridin-4-yl)thieno[3,2-d]pyrimidin-4-one], for which the IC50 was 100 to 1000 nM with HTT CJ mRNA, under 100 nM in the assay on SMN2 CJ mRNA and 100 to 1000 nM with Target C CJ mRNA.
`Cc1cn2cc(-c3cc4ncn(C5CNCCC5=O)c(=O)c4s3)cc(F)c2n1` (stereo not drawn) [Compound 279, 3-(6-{8-fluoro-2-methylimidazo[1,2-a]pyridin-6-yl}-4-oxothieno [3,2-d]pyrimidin-3-yl)piperidin-4-one]: the IC50 with HTT CJ mRNA, in the assay with SMN2 CJ mRNA and with Target C CJ mRNA was over 10000 nM in each case.
Turning to `Cc1cn2cc(N3CCc4cc(C5CCNCC5)sc4C3=O)cc(F)c2n1` [Compound 800, 6-[8-fluoro-2-methylimidazo[1,2-a]pyridin-6-yl]-2-(piperidin-4-yl)-4H,5H-thieno[2,3-c]pyridin-7-one], the IC50 in the assay with HTT CJ mRNA, in the assay with SMN2 CJ mRNA and in the assay with Target C CJ mRNA was over 10000 nM throughout.
As to `Cc1cn2cc(-n3ccc4cc(C5CCNCC5)sc4c3=O)cc(F)c2n1` [Compound 801, 6-[8-fluoro-2-methylimidazo[1,2-a]pyridin-6-yl]-2-(piperidin-4-yl)thieno[2,3-c]pyridin-7-one], the IC50 with HTT CJ mRNA, in the assay on SMN2 CJ mRNA and in the assay with Target C CJ mRNA was over 10000 nM in each case.
As to `Cc1cc(-c2cc3cnn(C4CCNCC4)c(=O)c3s2)cc2cn(C)nc12` [Compound 802, 2-(2,7-dimethyl-2H-indazol-5-yl)-6-(piperidin-4-yl)thieno[2,3-d]pyridazin-7(6H)-one], the concentration for half-maximal inhibition (IC50) was 100 to 1000 nM in the assay on HTT CJ mRNA, under 100 nM with SMN2 CJ mRNA and 100 to 1000 nM in the assay on Target C CJ mRNA.
Consider `Cc1cn2cc(-c3cc4ccn(C5CCNCC5)c(=O)c4s3)cc(F)c2n1` [Compound 804, 2-(8-fluoro-2-methylimidazo[1,2-a]pyridin-6-yl)-6-(piperidin-4-yl)thieno[2,3-c]pyridin-7(6H)-one], for which the IC50 with HTT CJ mRNA, in the assay on SMN2 CJ mRNA and in the assay with Target C CJ mRNA was 100 to 1000 nM each time.
As to `Cc1cc(-c2cc3ccn(C4CCNCC4)c(=O)c3s2)cc2cn(C)nc12` [Compound 805, 2-(2,7-dimethyl-2H-indazol-5-yl)-6-(piperidin-4-yl)thieno[2,3-c]pyridin-7(6H)-one], the IC50 is 100 to 1000 nM in the assay with HTT CJ mRNA, under 100 nM with SMN2 CJ mRNA and 1000 to 10000 nM with Target C CJ mRNA.

Source of the values: patent US20240366612A1, “COMPOUNDS AND METHODS FOR MODULATING NUCLEIC ACID SPLICING” (REMIX THERAPEUTICS INC., priority 2021, published 2024).
